In assay [1] the test system is TBK1 + IKKε (phospho-IRF3 @ Ser 386, MDA-MB-468 cells). Put plainly: TBK1 + IKKε cell assay: dose response inhibition of phospho-IRF3 @ Ser 386 in MDA-MB-468 cells. Type of assay: cell-based. Particulars: Homo sapiens, poly(I:C) stimulation, nuclear phospho-IRF3, read-out: TBK1 + IKKε cell assay IC50.
Protocol: Day 1: MDA-MB-468 cells are detached using HyQ-Tase, counted and sown into a 384-well plate with TC surface and clear bottom in a density of 10,000 cells per well in a total volume of 35 μl of complete medium. Alternatively, the cells are sown directly from frozen glass vials.
Day 2: The cells are pre-treated with inhibitor compounds for 1 h prior to poly(I:C) stimulation. After incubation for 2 h with poly(I:C), the cells are fixed in (para)formaldehyde (PFA) and permeabilised using methanol (MeOH). The cells are then blocked and incubated with an anti-pIRF3 antibody at 4° C. overnight.
Day 3: The primary antibody is washed off, an AlexaFluor488-conjugated secondary antibody is added, the cells are contrast-stained with propidium iodide, followed by image acquisition on an IMX ultra-high content reader.
The target of assay [2] is IKKε (Homo sapiens (Human), UniProt Q14164). Kind of assay: IKKε kinase assay (384-well flashplate assay). Particulars: 1 nM IKKε, 10 μM ATP, 30° C., 2 hours; read-out: IKKε enzyme assay IC50. Type of assay: biochemical. Put shortly:
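Recombinant IKKε (1 nM) phosphorylates biotinylated IκBα(19-42) peptide (800 nM) with 10 μM ATP spiked with ^33P-ATP, 2 h at 30° C in MOPS buffer pH 7.5. Stopped with EDTA, captured on flashplate, radioactivity counted; nonspecific signal defined with 3 μM BX-795; IC50 derived.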

Assay [3] has as its target TANK binding kinase (TBK1) (Homo sapiens (Human), UniProt Q9UHD2). Put plainly: TBK1 enzyme assay (384-well flashplate kinase assay). Type of assay: biochemical. The settings on record: 0.6 nM TBK1, 10 μM ATP, 30° C., 120 min.

Chain of IKKε (Q14164 whole entry): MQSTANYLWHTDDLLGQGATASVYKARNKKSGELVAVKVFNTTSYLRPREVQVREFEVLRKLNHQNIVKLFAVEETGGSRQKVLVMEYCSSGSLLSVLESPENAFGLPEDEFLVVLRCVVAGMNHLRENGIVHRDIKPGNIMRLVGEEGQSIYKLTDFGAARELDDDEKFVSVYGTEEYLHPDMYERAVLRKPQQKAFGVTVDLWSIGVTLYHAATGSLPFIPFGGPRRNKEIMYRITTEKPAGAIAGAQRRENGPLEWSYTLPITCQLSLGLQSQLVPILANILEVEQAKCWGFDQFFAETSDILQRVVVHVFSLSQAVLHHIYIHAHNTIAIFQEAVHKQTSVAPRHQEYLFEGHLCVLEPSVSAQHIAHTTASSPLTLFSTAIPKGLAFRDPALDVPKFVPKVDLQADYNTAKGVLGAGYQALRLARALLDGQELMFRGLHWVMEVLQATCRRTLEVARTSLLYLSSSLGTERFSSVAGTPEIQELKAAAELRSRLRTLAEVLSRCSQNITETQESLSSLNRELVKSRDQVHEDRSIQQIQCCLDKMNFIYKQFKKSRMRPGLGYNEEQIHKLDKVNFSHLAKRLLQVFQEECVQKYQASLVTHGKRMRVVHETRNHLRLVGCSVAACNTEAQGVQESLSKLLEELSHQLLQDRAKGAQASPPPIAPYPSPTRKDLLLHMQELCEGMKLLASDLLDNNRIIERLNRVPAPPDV
Chain of TANK binding kinase (TBK1) (Q9UHD2 whole entry): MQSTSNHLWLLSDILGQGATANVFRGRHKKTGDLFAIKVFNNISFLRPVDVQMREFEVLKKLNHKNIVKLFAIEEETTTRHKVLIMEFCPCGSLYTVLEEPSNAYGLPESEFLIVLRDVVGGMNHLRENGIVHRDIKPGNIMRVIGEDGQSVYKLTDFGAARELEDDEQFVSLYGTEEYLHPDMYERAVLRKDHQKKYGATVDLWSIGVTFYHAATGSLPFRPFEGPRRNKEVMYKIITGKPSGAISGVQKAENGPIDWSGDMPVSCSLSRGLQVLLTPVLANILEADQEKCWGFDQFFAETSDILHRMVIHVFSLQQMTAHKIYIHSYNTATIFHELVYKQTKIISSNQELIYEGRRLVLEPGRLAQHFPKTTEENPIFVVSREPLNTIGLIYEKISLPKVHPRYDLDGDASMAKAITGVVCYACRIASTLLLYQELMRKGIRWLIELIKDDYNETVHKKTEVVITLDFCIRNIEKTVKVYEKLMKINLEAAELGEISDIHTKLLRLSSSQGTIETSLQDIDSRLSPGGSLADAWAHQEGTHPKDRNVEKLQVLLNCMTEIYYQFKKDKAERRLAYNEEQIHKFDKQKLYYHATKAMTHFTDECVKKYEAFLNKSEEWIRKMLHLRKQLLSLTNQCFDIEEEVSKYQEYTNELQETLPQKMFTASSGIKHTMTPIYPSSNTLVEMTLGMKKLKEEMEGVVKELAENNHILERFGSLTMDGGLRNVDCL

Take `COCCn1cc(Nc2nccc(-c3ccc(OCC4CCC4)c(C#N)c3)n2)cn1` [Compound A103, 2-cyclobutylmethoxy-5-{2-[1-(2-methoxyethyl)-1H-pyrazol-4-ylamino]pyrimidin-4-yl}benzonitrile]: the figures for the IC50 in assay [1], in assay [2] and in assay [3] were 0.89 µM, 0.008 µM and 0.007 µM, respectively.

As for `N#Cc1cc(-c2ccnc(Nc3cnn([C@H]4CC[C@H](O)CC4)c3)n2)ccc1OC1CCOCC1` [Compound A101, 5-{2-[1-(4-hydroxycyclohexyl)-1H-pyrazol-4-ylamino]pyrimidin-4-yl}-2-(tetrahydropyran-4-yloxy)benzonitrile], the results for the IC50 in assay [1], in assay [2] and in assay [3] were 0.44 µM, 0.005 µM and 0.003 µM, respectively.

For `N#Cc1cc(-c2ccnc(Nc3ccc(N4CCOCC4)nn3)c2)ccc1OC1CCOCC1` [Compound A90, 5-[2-(6-morpholin-4-ylpyridazin-3-ylamino)pyridin-4-yl]-2-(tetrahydropyran-4-yloxy)benzonitrile], the IC50 is 1.3 µM in assay [1], 0.098 µM in assay [2] and 0.088 µM in assay [3].

Turning to `N#Cc1cc(-c2ccnc(Nc3ccc(N4CCOCC4)cn3)c2)ccc1OCC1CCC1` [Compound A113, 2-cyclobutylmethoxy-5-[2-(5-morpholin-4-ylpyridin-2-ylamino)pyridin-4-yl]benzonitrile], the IC50 in assay [1] came to 2.9 µM; in assay [2] it was 0.12 µM; in assay [3] it was 0.054 µM.

In the case of `N#Cc1cc(-c2ccnc(Nc3cnn(CCC4CCNCC4)c3)c2)ccc1OC1CCOCC1` [Compound A21, 5-{2-[1-(2-Piperidin-4-ylethyl)-1H-pyrazol-4-ylamino]pyridin-4-yl}-2-(tetrahydropyran-4-yloxy)benzonitrile], the values for the IC50 in assay [1], in assay [2] and in assay [3] were 5.3 µM, 0.037 µM and 0.07 µM, respectively.

For the compound `N#Cc1cc(-c2ccnc(Nc3cc(CN)ccn3)c2)ccc1OC1CCOCC1` [Compound A77, 5-[2-(4-aminomethyl-pyridin-2-ylamino)pyridin-4-yl]-2-(tetrahydropyran-4-yloxy)benzonitrile], the IC50 in assay [1] was determined as 1.4 µM; in assay [2], 0.012 µM; in assay [3] it was 0.03 µM.

`COCCCn1cc(Nc2cc(-c3ccc(OC4CCOCC4)c(C#N)c3)ccn2)cn1` [Compound A23, 5-{2-[1-(3-Methoxypropyl)-1H-pyrazol-4-ylamino]pyridin-4-yl}-2-(tetrahydropyran-4-yloxy)benzonitrile]: the figures for the IC50 in assay [1], in assay [2] and in assay [3] were 7.8 µM, 0.16 µM and 0.12 µM, respectively.

With `N#Cc1cc(-c2ccnc(Nc3ccc(-c4cccnc4)cn3)c2)ccc1OC1CCOCC1` [Compound A3, 5-[2-([3,3′]Bipyridinyl-6-ylamino)pyridin-4-yl]-2-(tetrahydropyran-4-yloxy)benzonitrile], the IC50 in assay [1] was 3.3 µM; in assay [2], 0.37 µM; in assay [3] it was 0.26 µM.

Regarding `N#Cc1cc(-c2ccnc(Nc3cnn(CC4CC4C#N)c3)c2)ccc1OC1CCOCC1` (stereo not drawn) [Compound A24, 5-{2-[1-(2-Cyanocyclopropylmethyl)-1H-pyrazol-4-ylamino]pyridin-4-yl}-2-(tetrahydropyran-4-yloxy)benzonitrile], the IC50 was found to be 4.8 µM in assay [1], 0.089 µM in assay [2] and 0.11 µM in assay [3].

On to `Cc1cc(Nc2nccc(-c3ccc(OC4CCOCC4)c(C#N)c3)n2)no1` [Compound A80, 5-[2-(5-methylisoxazol-3-ylamino)pyrimidin-4-yl]-2-(tetrahydropyran-4-yloxy)benzonitrile], for which the IC50 in assay [1] was 13 µM; in assay [2], 0.21 µM; in assay [3], 0.23 µM.

Turning to `N#Cc1cc(-c2ccnc(Nc3cnc(C4CCOCC4)cn3)c2)ccc1OC1CCOCC1` [Compound A98, 2-(tetrahydropyran-4-yloxy)-5-{2-[5-(tetrahydropyran-4-yl)pyrazin-2-yl-amino]pyridin-4-yl}benzonitrile], the IC50 in assay [1] amounted to 0.39 µM; in assay [2], 0.008 µM; in assay [3], 0.005 µM.

(Values after US8969335B2, “Benzonitrile derivatives as kinase inhibitors” (MERCK PATENT GmbH, priority 2011, dated 2015).)
